The test system of experiment [1] is HCT-116. Kind of experiment: Toxicity in human HCT116 cells after 96 hrs by MTT assay. The format is functional. On the technique in general: Formazan colour is commonly taken as a measure of viable cells.
Experiment [2] addresses T1, Ribosyldihydronicotinamide dehydrogenase [quinone] (Homo sapiens, UniProt P16083).
T1 sequence (P16083 whole entry): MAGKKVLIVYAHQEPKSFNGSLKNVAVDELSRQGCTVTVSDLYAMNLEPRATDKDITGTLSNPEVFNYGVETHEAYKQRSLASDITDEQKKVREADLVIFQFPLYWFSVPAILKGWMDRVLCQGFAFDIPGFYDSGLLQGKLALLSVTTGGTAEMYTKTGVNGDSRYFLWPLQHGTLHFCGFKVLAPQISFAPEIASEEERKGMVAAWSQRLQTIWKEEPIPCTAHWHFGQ
Kind of experiment: Inhibition of human recombinant NQO2 assessed as reduction of DCPIP by spectrophotometry.

Experiment [3] has as its system Nucleic Acid. Kind of experiment: Binding affinity to calf thymus DNA assessed as change in melting temperature at 10 uM relative to control. The format is nucleic-acid assay. The settings on record: Bos taurus.

In general, IC50 refers to the concentration needed to halve the response being measured. The term ΔTm denotes the shift of the melting midpoint relative to a reference. In experiment [1], `CCN(CC)CCNc1ccc2ncn3c4c(OC)ccc(O)c4c(=O)c1c23` had an Activity of 0.54 µM. Besides, the IC50 in experiment [2] worked out at 31 nM. Moreover, the ΔTm in experiment [3] turned out to be 3.1 °C.

`Cc1nc2ccc(NCCN(C)C)c3c(=O)c4cc(O)ccc4n1c23` had an Activity in experiment [1] of 0.65 µM. In addition, the IC50 in experiment [2] came out at 50 nM. Further, the ΔTm in experiment [3] was 9.1 °C.

`CCN(CC)CCNc1ccc2ncn3c4c(OC)ccc(OC)c4c(=O)c1c23` displayed an Activity in experiment [1] of 1.67 µM. In experiment [2], the IC50 worked out at 17 nM. For the same compound, the ΔTm in experiment [3] was 1.8 °C.

The compound `CCN(CC)CCNc1ccc2ncn3c4ccc(OC)cc4c(=O)c1c23` yielded an Activity in experiment [1] of 2.9 µM. Besides, the IC50 in experiment [2] amounted to 1000 nM. The ΔTm in experiment [3] is 4.5 °C.

Compound `CCN(CC)CCNc1ccc2nc(C)n3c4ccc(O)cc4c(=O)c1c23` came in with an Activity in experiment [1] of 3 µM. The IC50 in experiment [2] stood at 16 nM. The ΔTm in experiment [3] came to 8.6 °C.

On to `CN(C)CCNc1ccc2ncn3c4ccc(O)cc4c(=O)c1c23`, for which the Activity in experiment [1] is 1 µM. Moreover, the IC50 in experiment [2] is 296 nM. For the same compound, the ΔTm in experiment [3] worked out at 5.1 °C.

`CCN(CC)CCNc1ccc2ncn3c4c(OC)cccc4c(=O)c1c23`: in experiment [1], the Activity is 1.7 µM. The IC50 in experiment [2] was 99 nM. Besides, the ΔTm in experiment [3] is 5 °C.

On to `CCN(CC)CCNc1ccc2ncn3c4ccc(O)cc4c(=O)c1c23` [C-1311], for which, in experiment [1], the Activity is 0.77 µM. In addition, in experiment [2], the IC50 came to 148 nM. The ΔTm in experiment [3] was 4.5 °C.

With `CCN(CC)CCNc1ccc2ncn3c4ccccc4c(=O)c1c23`, the Activity in experiment [1] amounted to 1 µM. Besides, in experiment [2], the IC50 was 427 nM. In addition, the ΔTm in experiment [3] turned out to be 6.4 °C.

For the compound `CCN(CC)CCNc1ccc2ncn3c4cc(OC)c(OC)c(O)c4c(=O)c1c23`, the Activity in experiment [1] worked out at 0.95 µM. The IC50 in experiment [2] was determined as 6 nM. The ΔTm in experiment [3] amounted to 1 °C.

In experiment [1], `CCc1nc2ccc(NCCN(C)C)c3c(=O)c4ccccc4n1c23` registered an Activity of 0.47 µM. In experiment [2], the IC50 came out at 693 nM. Further, the ΔTm in experiment [3] was 5.1 °C.

Take `COc1cccc2c1C(=O)c1c(O)c3c(c(O)c1C2=O)C[C@@](O)(C(=O)CO)C[C@@H]3O[C@H]1C[C@H](N)[C@H](O)[C@H](C)O1`: in experiment [3], the ΔTm was 14.5 °C.

Regarding `Cc1nc2ccc(NCCN(C)C)c3c(=O)c4ccccc4n1c23`, the Activity in experiment [1] stood at 0.46 µM. Moreover, the IC50 in experiment [2] was found to be 323 nM. For the same compound, the thermal shift (ΔTm) in experiment [3] stood at 7.1 °C.

In turn, `CN(C)CCCNc1ccc2ncn3c4ccccc4c(=O)c1c23` displayed an Activity in experiment [1] of 0.86 µM. Moreover, the IC50 in experiment [2] was 172 nM. For the same compound, the ΔTm in experiment [3] was determined as 5.2 °C.

In experiment [1], `CCN(CC)CCNc1ccc2nc(C)n3c4ccc(OC)cc4c(=O)c1c23` displayed an Activity of 3 µM. The IC50 in experiment [2] turned out to be 9 nM. The ΔTm in experiment [3] was determined as 8.6 °C.

Compound `CCN(CC)CCCNc1ccc2ncn3c4ccc(O)cc4c(=O)c1c23` had an Activity in experiment [1] of 0.82 µM. The IC50 in experiment [2] worked out at 597 nM. Besides, in experiment [3], the ΔTm was 8 °C.

With `CN(C)CCNc1ccc2ncn3c4ccccc4c(=O)c1c23`, in experiment [1], the Activity is 0.57 µM. Moreover, the IC50 in experiment [2] came out at 830 nM. For the same compound, the ΔTm in experiment [3] was found to be 5.6 °C.

With `CCN(CC)CCNc1ccc2ncn3c4cc(O)ccc4c(=O)c1c23`, the Activity in experiment [1] is 2.2 µM. The IC50 in experiment [2] came out at 953 nM. Further, in experiment [3], the thermal shift (ΔTm) was found to be 5 °C.

(Values after ChEMBL document CHEMBL1157906, “Imidazoacridin-6-ones as novel inhibitors of the quinone oxidoreductase NQO2” (Bioorg Med Chem Lett, 2010).)
